Results taken from patent publication US7173018B2, “Phospholipid derivatives of non-steroidal anti-inflammatory drugs” (D-Pharm, Ltd., priority 1998, dated 2007).

Legend:
[1] = test system: Carrageenan-induced rat paw edema; experiment: Carrageenan-induced rat paw edema (anti-inflammatory efficacy); type: in vivo; conditions: rats, 3, 5 and 7 hours post-carrageenan, p<0.05, FIG. 3
Experimental: Efficacy of DP-DFC lipid derivatives was tested in vivo in the model system of rodent carrageenan edema test.
Carrageenan-induced rat paw edema is a widely employed animal model for acute inflammation. The objective of the study is to assess the potential prophylactic effects of DP-DCF derivatives on the prevention of inflammatory swelling and, in particular, to compare the efficacy parameters with those obtained for diclofenac. The experimental set-up was as follows: Male Sprague-Dawley rats weighing 120–180 g (supplied by Harlan Laboratories Breeding Center, Israel) were intraperitoneally (i.p.) injected with drug or prodrug one hour prior to the induction of inflammation with carrageenan. Animals injected with vehicle alone served as control group.
Paw edema was induced by a single sub-plantar injection of 0.1 ml 2% carrageenan in physiological saline, into test animals' right hind paws. Just prior to paw edema induction, the paw thickness of the test animals' right hind paws was measured in triplicate using a plethysmograph and micrometer to provide a baseline. At 3, 5 and 7 hours post carrageenan injection, the right paw thickness was measured in the same manner as before.
Potential anti-inflammatory activity in suppressing carrageenan-induced paw oedema was assessed by the relative differences in paw volumes between pre- and post-carrageenan measurements, expressed as (%) change. […]

[2] = test system: global forebrain ischemia; experiment: Global forebrain ischemia model, serum neuron specific enolase (NSE); type: in vivo, Mongolian gerbils; conditions: gerbils
Experimental: Neuroprotective effects of compounds of the invention were examined in the global forebrain ischemic model system in Mongolian gerbils.
Male Mongolian gerbils 60–70 g (Charles River Laboratories, USA) were used in this study. Global forebrain ischemia was induced by transient occlusion of both carotid arteries for 10 minutes, using arterial clips. The tested compounds were orally administered to the animals, 7–8 animals per group, by either one of two schemes: • a) single dose administration of commercial diclofenac (Sigma, USA; 10 mg/kg) or dose-equivalent of DP-DCF; Z=5 (30 mg/kg). The administration was per os (p.o.) two hours before induction of ischemia (FIG. 4); • b) multiple dosing of DP-DCF; Z=5 (30 mg/kg) orally administered daily for 5 days beginning four days prior to induction of ischemia. (FIG. 5).
In both schemes, animals treated with vehicle alone served as control groups. Blood samples were withdrawn from eye sinuses of the animals 24 hours after the onset of ischemia and serum levels of neuron specific enolase (NSE) were determined by radioimmunoassay using NSE kit (Pharmatope Ltd., Israel).
It has been shown that serum levels of NSE are elevated in the event of ischemic insult. Thus, serum level of NSE may serve as a marker for the degree of neuronal damage (Barone et al. (1993) Brain Res. 623: 77–82).

[3] = In vivo sub-chronic toxicity study: body weight changes; design: species or system rat; conditions: rats, 10 mg/kg p.o. gavage daily for 14 days; FIG. 1
Experimental: DP-DCF compounds were evaluated for sub-chronic toxicity during 14-day drug administration period by following two criteria: a) monitoring body weight changes, and b) evaluating gastro-toxicity scores.
Male Sprague-Dawley rats weighing 250–280 g were kept under standard conditions for an acclimatization period of one week with food and water supplied ad lib. The rats were administered with commercial diclofenac (DCF; Sigma, USA) or with equivalent doses of 1-Stearoyl-2-{4-[2-(2,6-dichloroanilino)-phenylacetamido]butanoyl}-sn-glycero-3-phosphocholine (DP-DCF; Z=3) or 1-Stearoyl-2-{6-[2-(2,6-dichloroanilino)-phenylacetamido]hexanoyl}-sn-glycero-3-phosphocholine (DP-DCF; Z=5), p.o. by gavage daily for 14 days. Animals treated with the vehicle solution alone serve as control group.
The treatment groups were as follows:
A major sign of general toxicity is decreasing of body weight. Male Sabra rats were treated as described above. The rats were weighed prior to dosing at the beginning of the experiment (day zero) and at the 5th, 9th and 13th day of the treatment.

[4] = In vivo sub-chronic toxicity study: gastro-toxicity scores; design: species or system rat; conditions: rats, 10 mg/kg p.o. daily, day 14; scores 0 (no visible lesions) to 5 (perforation); FIG. 2
Experimental: Male Sprague-Dawley rats weighing 250–280 g were kept under standard conditions for an acclimatization period of one week with food and water supplied ad lib. […] Animals treated with the vehicle solution alone serve as control group.
Toxicity scores were assessed at the end of the 14-day multiple p.o drug administration period. On day 14, the animals were anesthetized 4 hours after administration of the test materials by i.p. injection of 0.5 ml pentobarbitone sodium (200 mg/ml) and laparatomy was preformed to remove the rat's stomach with approximately 15 mm of the associated duodenum. The stomachs were cut open along the small curvature and washed, with gentle rubbing, under running water. A semi-quantitative assessment of the gastric damage was determined by assigning scores ranging from 0 to 5. The scores indicate as follows: (0) No macroscopically visible lesions; (1) Hyperemia; (2) One-two slight lesions; (3) More than 2 slight lesions; (4) Severe lesions; (5) Perforation.

Row | Compound | Anti-inflammatory activity: suppression of carrageenan-induced increase of paw volume ([1]; 30 mg/kg i.p. one hour prior to carrageenan) | Serum NSE level 24 hours after ischemia ([2]; 30 mg/kg orally daily for 5 days beginning four days prior to ischemia, p<0.05, FIG. 5) | Serum NSE level 24 hours after ischemia ([2]; single dose 30 mg/kg p.o. two hours before ischemia, FIG. 4) | Body weight changes (%) [3] | Anti-inflammatory activity: suppression of carrageenan-induced increase of paw volume ([1]; 10 mg/kg i.p. one hour prior to carrageenan) | Gastro-toxicity score [4]
1 | 1-Stearoyl-2-{6-[2-(2,6-dichloroanilino)phenylacetamido]hexanoy}-sn-glycero-3-phosphocholine [DCF n=5] | statistically significant and consistent anti-inflammatory activity | significant reduction in NSE level | reduced in comparison to NSE level in serum of animals that were treated with DCF or vehicle alone | – | – | –
2 | O=C(O)Cc1ccccc1Nc1c(Cl)cccc1Cl [DCF, [o-(2,6-dichloroanilino)phenyl]acetic acid] | – | – | – | maximal decrease of body weight on day 5 | statistically significant and consistent anti-inflammatory activity | 4
